Reference: publication PMC5218480 (PLoS ONE, 2017)

Test system: MV-4-11 cells
Experiment: Gene expression microarray analysis (Affymetrix PrimeView) and GSEA
Assay type: cell-based, human
Set-up: RFU PODN (11730768_x_at) / Fold change /veh PODN (11730768_x_at) / RFU LINC00158 (11744669_a_at) / Fold change /veh LINC00158 (11744669_a_at) / RFU DUSP10 (11751237_a_at) / Fold change /veh DUSP10 (11751237_a_at) / RFU ID3 (11757404_x_at) / Fold change /veh ID3 (11757404_x_at) / RFU PLEKHG5 (11737974_s_at) / Fold change /veh PLEKHG5 (11737974_s_at) / RFU LRRC4B (11730491_at) / Fold change /veh LRRC4B (11730491_at) / RFU GIMAP4 (11747438_a_at) / Fold change /veh GIMAP4 (11747438_a_at) / RFU KRT8 (11758183_x_at) / Fold change /veh KRT8 (11758183_x_at) / RFU CNN1 (11734310_a_at) / Fold change /veh CNN1 (11734310_a_at) / RFU VPS37D (11726825_at) / Fold change /veh VPS37D (11726825_at) / RFU C10orf10 (11716522_x_at) / Fold change /veh C10orf10 (11716522_x_at) / RFU KIR2DL2 /// KIR2DL4 /// KIR2DL5A /// KIR2DL5B /// KIR2DS1 /// KIR2DS2 /// KIR2DS3 /// KIR2DS4 /// KIR3DL3 /// KIR3DL3 /// KIR3DS1 (11738374_at) / Fold change /veh KIR2DL2 /// KIR2DL4 /// KIR2DL5A /// KIR2DL5B /// KIR2DS1 /// KIR2DS2 /// KIR2DS3 /// KIR2DS4 /// KIR3DL3 /// KIR3DL3 /// KIR3DS1 (11738374_at) / RFU C1QL1 (11718748_at) / Fold change /veh C1QL1 (11718748_at) / RFU TMPRSS4 (11747572_a_at) / Fold change /veh TMPRSS4 (11747572_a_at) / RFU HAMP (11756126_x_at) / Fold change /veh HAMP (11756126_x_at) / RFU RNFT2 (11725882_a_at) / Fold change /veh RNFT2 (11725882_a_at) / RFU NR4A2 (11747474_a_at) / Fold change /veh NR4A2 (11747474_a_at) / RFU ABCC12 (11746883_a_at) / Fold change /veh ABCC12 (11746883_a_at) / RFU TMEM136 (11760407_x_at) / Fold change /veh TMEM136 (11760407_x_at) / RFU CLDN22 /// WWC2 (11732394_at) / Fold change /veh CLDN22 /// WWC2 (11732394_at) / RFU HLA-DPB1 (11760878_x_at) / Fold change /veh HLA-DPB1 (11760878_x_at) / RFU SPINT1 (11716480_a_at) / Fold change /veh SPINT1 (11716480_a_at) / RFU GAP43 (11754022_s_at) / Fold change /veh GAP43 (11754022_s_at) / RFU A4GNT (11735810_at) / Fold change /veh A4GNT (11735810_at) / RFU PRB3 (11715151_x_at) / Fold change /veh PRB3 (11715151_x_at) / RFU TUBB4B (11761932_at) / Fold change /veh TUBB4B (11761932_at) / RFU CAPN14 (11732068_a_at) / Fold change /veh CAPN14 (11732068_a_at) / RFU TMCC2 (11721928_a_at) / Fold change /veh TMCC2 (11721928_a_at) / RFU IRGQ (11745062_a_at) / Fold change /veh IRGQ (11745062_a_at) / RFU FAM174B (11720279_a_at) / Fold change /veh FAM174B (11720279_a_at) / RFU TMPRSS4 (11748680_a_at) / Fold change /veh TMPRSS4 (11748680_a_at) / RFU FAM212B (11763350_a_at) / Fold change /veh FAM212B (11763350_a_at) / RFU PLEKHG5 (11743358_a_at) / Fold change /veh PLEKHG5 (11743358_a_at) / RFU ZSCAN30 (11745921_a_at) / Fold change /veh ZSCAN30 (11745921_a_at) / RFU CMKLR1 (11741424_a_at) / Fold change /veh CMKLR1 (11741424_a_at) / RFU LOC101060620 /// MAPK8IP1 (11723275_at) / Fold change /veh LOC101060620 /// MAPK8IP1 (11723275_at) / RFU SPTSSB (11747773_x_at) / Fold change /veh SPTSSB (11747773_x_at) / RFU PRSS12 (11739890_at) / Fold change /veh PRSS12 (11739890_at) / RFU BIN1 (11741810_x_at) / Fold change /veh BIN1 (11741810_x_at) / RFU WNT11 (11732464_a_at) / Fold change /veh WNT11 (11732464_a_at) / RFU C10orf10 (11716521_a_at) / Fold change /veh C10orf10 (11716521_a_at) / RFU C5orf56 (11738089_at) / Fold change /veh C5orf56 (11738089_at) / RFU CYB561 (11721691_x_at) / Fold change /veh CYB561 (11721691_x_at) / RFU ANKRD19P (11752326_a_at) / Fold change /veh ANKRD19P (11752326_a_at) / RFU OR2T12 /// OR2T33 /// OR2T8 (11738714_s_at) / Fold change /veh OR2T12 /// OR2T33 /// OR2T8 (11738714_s_at) / RFU VCAN (11748164_a_at) / Fold change /veh VCAN (11748164_a_at) / RFU JSRP1 (11732532_at) / Fold change /veh JSRP1 (11732532_at) / RFU KRTAP10-11 (11738290_x_at) / Fold change /veh KRTAP10-11 (11738290_x_at) / RFU MYO3A (11730013_a_at) / Fold change /veh MYO3A (11730013_a_at) / RFU EBF3 (11725865_a_at) / Fold change /veh EBF3 (11725865_a_at) / RFU CAMK2N1 (11719241_x_at) / Fold change /veh CAMK2N1 (11719241_x_at) / RFU C5orf56 (11738088_a_at) / Fold change /veh C5orf56 (11738088_a_at) / RFU OLFML3 (11715873_a_at) / Fold change /veh OLFML3 (11715873_a_at) / RFU LOC100653217 /// NTM (11731650_a_at) / Fold change /veh LOC100653217 /// NTM (11731650_a_at) / RFU MAPK11 (11762145_a_at) / Fold change /veh MAPK11 (11762145_a_at) / RFU FIZ1 (11724087_x_at) / Fold change /veh FIZ1 (11724087_x_at) / RFU OASL (11726364_x_at) / Fold change /veh OASL (11726364_x_at) / RFU SOX15 (11748057_x_at) / Fold change /veh SOX15 (11748057_x_at) / RFU CD79A (11719716_a_at) / Fold change /veh CD79A (11719716_a_at) / RFU HIST1H1D (11736915_at) / Fold change /veh HIST1H1D (11736915_at) / RFU CASKIN2 (11723855_a_at) / Fold change /veh CASKIN2 (11723855_a_at) / RFU LOC730098 (11760151_x_at) / Fold change /veh LOC730098 (11760151_x_at) / RFU OR4N2 (11742367_at) / Fold change /veh OR4N2 (11742367_at) / RFU PRRT2 (11749266_a_at) / Fold change /veh PRRT2 (11749266_a_at) / RFU SNX32 (11753110_a_at) / Fold change /veh SNX32 (11753110_a_at) / RFU CDHR5 (11726645_a_at) / Fold change /veh CDHR5 (11726645_a_at) / RFU RCAN1 (11760418_a_at) / Fold change /veh RCAN1 (11760418_a_at) / RFU FAM167A (11723789_a_at) / Fold change /veh FAM167A (11723789_a_at) / RFU FAM26E (11764081_at) / Fold change /veh FAM26E (11764081_at) / RFU ISYNA1 (11749810_s_at) / Fold change /veh ISYNA1 (11749810_s_at) / RFU ACY1 (11761880_at) / Fold change /veh ACY1 (11761880_at) / RFU 11764098_at / Fold change /veh 11764098_at / RFU SAMD14 (11745864_x_at) / Fold change /veh SAMD14 (11745864_x_at) / RFU NPB (11741838_a_at) / Fold change /veh NPB (11741838_a_at) / RFU TMPRSS6 (11731388_a_at) / Fold change /veh TMPRSS6 (11731388_a_at) / RFU KRTAP10-2 (11738614_at) / Fold change /veh KRTAP10-2 (11738614_at) / RFU ARHGAP8 /// PRR5-ARHGAP8 (11727945_x_at) / Fold change /veh ARHGAP8 /// PRR5-ARHGAP8 (11727945_x_at) / RFU KRTAP5-7 /// NADSYN1 (11734609_at) / Fold change /veh KRTAP5-7 /// NADSYN1 (11734609_at) / RFU RASL12 (11751679_a_at) / Fold change /veh RASL12 (11751679_a_at) / RFU CDKN2B (11736163_a_at) / Fold change /veh CDKN2B (11736163_a_at) / RFU PRF1 (11729649_at) / Fold change /veh PRF1 (11729649_at) / RFU, ZNF638 /// ZNF638-IT1 / Fold change vs veh, ZNF638 /// ZNF638-IT1 / RFU, PANK3 / Fold change vs veh, PANK3 / RFU, SH3YL1 / Fold change vs veh, SH3YL1 / RFU, ZEB2 / Fold change vs veh, ZEB2 / RFU, NRIP1 / Fold change vs veh, NRIP1 / RFU, PTTG1IP / Fold change vs veh, PTTG1IP / RFU, CAPN2 / Fold change vs veh, CAPN2 / RFU, MED14 / Fold change vs veh, MED14 / RFU, SNORA58 / Fold change vs veh, SNORA58 / RFU, C1orf63 / Fold change vs veh, C1orf63 / RFU, LRRFIP1 / Fold change vs veh, LRRFIP1 / RFU, NDUFAF7 / Fold change vs veh, NDUFAF7 / RFU, SLC12A2 / Fold change vs veh, SLC12A2 / RFU, IBTK / Fold change vs veh, IBTK / RFU, ESF1 / Fold change vs veh, ESF1 / Fold change vs veh, TMEM50B / RFU, TAOK1 / Fold change vs veh, TAOK1 / RFU, ACBD3 / Fold change vs veh, ACBD3 / RFU, TMA16 / Fold change vs veh, TMA16 / RFU, RWDD3 / Fold change vs veh, RWDD3 / RFU, BCAT1 / Fold change vs veh, BCAT1 / RFU, EDEM3 / Fold change vs veh, EDEM3 / RFU, TMEM33 / Fold change vs veh, TMEM33 / RFU, WDR75 / Fold change vs veh, WDR75 / RFU, AHCTF1 / Fold change vs veh, AHCTF1 / RFU, TFRC / Fold change vs veh, TFRC / RFU, ZDHHC17 / Fold change vs veh, ZDHHC17 / RFU, NOM1 / Fold change vs veh, NOM1 / RFU, ARL8B / Fold change vs veh, ARL8B / RFU, ZBTB11 / Fold change vs veh, ZBTB11 / RFU, TAMM41 / Fold change vs veh, TAMM41 / RFU, KIAA1704 /// LOC100996395 / Fold change vs veh, KIAA1704 /// LOC100996395 / RFU, ING1 / Fold change vs veh, ING1 / RFU, TRMT61B / Fold change vs veh, TRMT61B / RFU, FUBP3 / Fold change vs veh, FUBP3 / RFU, TP53 / Fold change vs veh, TP53 / RFU, TNKS2 / Fold change vs veh, TNKS2 / RFU, ZFP14 / Fold change vs veh, ZFP14 / RFU, ACTR2 / Fold change vs veh, ACTR2 / RFU, PPP3R1 / Fold change vs veh, PPP3R1 / RFU, PIK3R1 / Fold change vs veh, PIK3R1 / RFU, HNRNPA1 / Fold change vs veh, HNRNPA1 / RFU, RNF170 / Fold change vs veh, RNF170 / RFU, ZNF28 / Fold change vs veh, ZNF28 / RFU, RNGTT / Fold change vs veh, RNGTT / RFU, OGT / Fold change vs veh, OGT / RFU, BRD1 / Fold change vs veh, BRD1 / RFU, MARS / Fold change vs veh, MARS / RFU, ZNF655 / Fold change vs veh, ZNF655 / RFU, FAHD1 / Fold change vs veh, FAHD1 / RFU, BDP1 / Fold change vs veh, BDP1 / RFU, LRRCC1 / Fold change vs veh, LRRCC1 / RFU, ARID1A / Fold change vs veh, ARID1A / RFU, ZNF146 / Fold change vs veh, ZNF146 / RFU, ZNF330 / Fold change vs veh, ZNF330 / RFU, GPN3 / Fold change vs veh, GPN3 / RFU, C9orf123 / Fold change vs veh, C9orf123 / RFU, N4BP2L2 / Fold change vs veh, N4BP2L2 / RFU, ARFIP1 / Fold change vs veh, ARFIP1 / RFU, FAM179B / Fold change vs veh, FAM179B / RFU, BCL10 / Fold change vs veh, BCL10 / RFU, UHRF1BP1L / Fold change vs veh, UHRF1BP1L / RFU, BET1 / Fold change vs veh, BET1 / RFU, CNOT2 / Fold change vs veh, CNOT2 / RFU, ZNF268 / Fold change vs veh, ZNF268 / Fold change vs veh, ZNF507 / RFU, DGCR2 / Fold change vs veh, DGCR2 / RFU, WDSUB1 / Fold change vs veh, WDSUB1 / Fold change vs veh, HSP90B1 /// MIR3652 / RFU, ADSS / Fold change vs veh, ADSS / RFU, GK / Fold change vs veh, GK / RFU, ZNF148 / Fold change vs veh, ZNF148 / RFU, TAF9 / Fold change vs veh, TAF9 / RFU, SLC1A5 / Fold change vs veh, SLC1A5 / RFU, SLMO2 / Fold change vs veh, SLMO2 / RFU, ABCC4 / Fold change vs veh, ABCC4 / RFU, LOC101060439 /// RAP1B / Fold change vs veh, LOC101060439 /// RAP1B / RFU, RFX7 / Fold change vs veh, RFX7 / RFU, GTPBP10 / Fold change vs veh, GTPBP10 / RFU, CNEP1R1 / Fold change vs veh, CNEP1R1 / RFU, BIVM-ERCC5 /// ERCC5 / Fold change vs veh, BIVM-ERCC5 /// ERCC5 / RFU, ILF3 / Fold change vs veh, ILF3 / RFU 11762660_at / Fold change /veh 11762660_at / RFU VCAN (11757783_s_at) / Fold change /veh VCAN (11757783_s_at) / RFU DDX43 (11728927_at) / Fold change /veh DDX43 (11728927_at) / RFU KRT8 (11758188_x_at) / Fold change /veh KRT8 (11758188_x_at) / RFU NKD1 (11759106_at) / Fold change /veh NKD1 (11759106_at) / RFU SRD5A1 (11742802_a_at) / Fold change /veh SRD5A1 (11742802_a_at) / RFU TPSAB1 /// TPSB2 (11721975_s_at) / Fold change /veh TPSAB1 /// TPSB2 (11721975_s_at) / RFU GSTM3 (11746129_a_at) / Fold change /veh GSTM3 (11746129_a_at) / RFU IL23R (11737362_x_at) / Fold change /veh IL23R (11737362_x_at) / RFU TMEM51 (11727254_a_at) / Fold change /veh TMEM51 (11727254_a_at) / RFU PIWIL2 (11732686_x_at) / Fold change /veh PIWIL2 (11732686_x_at) / RFU ORM1 (11744905_x_at) / Fold change /veh ORM1 (11744905_x_at) / RFU CCDC152 (11743942_at) / Fold change /veh CCDC152 (11743942_at) / RFU ECM1 (11717891_a_at) / Fold change /veh ECM1 (11717891_a_at) / RFU IL23R (11748794_a_at) / Fold change /veh IL23R (11748794_a_at) / RFU TNFAIP8L3 (11732012_x_at) / Fold change /veh TNFAIP8L3 (11732012_x_at) / RFU MBOAT4 (11741988_at) / Fold change /veh MBOAT4 (11741988_at) / RFU 11764193_at / Fold change /veh 11764193_at / RFU TMEM53 (11763286_at) / Fold change /veh TMEM53 (11763286_at) / RFU MAGEB2 (11727129_at) / Fold change /veh MAGEB2 (11727129_at) / RFU TMEM200A (11744735_a_at) / Fold change /veh TMEM200A (11744735_a_at) / RFU CCDC152 (11751479_a_at) / Fold change /veh CCDC152 (11751479_a_at) / RFU FAM211A (11726209_a_at) / Fold change /veh FAM211A (11726209_a_at) / RFU RGS16 (11746705_a_at) / Fold change /veh RGS16 (11746705_a_at) / RFU VCAN (11755009_s_at) / Fold change /veh VCAN (11755009_s_at) / RFU RHOB (11743442_s_at) / Fold change /veh RHOB (11743442_s_at) / RFU RGS16 (11720943_a_at) / Fold change /veh RGS16 (11720943_a_at) / RFU RGS16 (11720944_at) / Fold change /veh RGS16 (11720944_at) / RFU, VPS4B / Fold change vs veh, VPS4B / RFU, CREB1 / Fold change vs veh, CREB1 / RFU, DNAJC13 / Fold change vs veh, DNAJC13 / RFU, GNAQ / Fold change vs veh, GNAQ / RFU, CDK5R1 / Fold change vs veh, CDK5R1 / RFU, ZRANB3 / Fold change vs veh, ZRANB3 / RFU, CUL4A / Fold change vs veh, CUL4A / RFU, CCNY / Fold change vs veh, CCNY / RFU, UFL1 / Fold change vs veh, UFL1 / RFU, COG3 / Fold change vs veh, COG3 / RFU, DIAPH2 / Fold change vs veh, DIAPH2 / RFU, SKA2 / Fold change vs veh, SKA2 / RFU, AFF3 / Fold change vs veh, AFF3 / RFU, LMF1 / Fold change vs veh, LMF1 / RFU, IPO11 / Fold change vs veh, IPO11 / RFU, DFFB / Fold change vs veh, DFFB / RFU, FOXP1 / Fold change vs veh, FOXP1 / RFU, CARD8 / Fold change vs veh, CARD8 / RFU, STRN3 / Fold change vs veh, STRN3 / RFU, ADK / Fold change vs veh, ADK / RFU, RASSF2 / Fold change vs veh, RASSF2 / RFU, WIPF1 / Fold change vs veh, WIPF1 / RFU, LARP1B / Fold change vs veh, LARP1B / RFU, RASA1 / Fold change vs veh, RASA1 / RFU, RB1 / Fold change vs veh, RB1 / RFU, PPFIA1 / Fold change vs veh, PPFIA1 / RFU, MAT2A / Fold change vs veh, MAT2A / RFU, CCT5 / Fold change vs veh, CCT5 / RFU, WDR92 / Fold change vs veh, WDR92 / RFU, CUX1 / Fold change vs veh, CUX1 / RFU, TTC7A / Fold change vs veh, TTC7A / RFU, TMEM135 / Fold change vs veh, TMEM135 / RFU, DEPTOR / Fold change vs veh, DEPTOR / RFU, CPM / Fold change vs veh, CPM / RFU, DNAJB6 / Fold change vs veh, DNAJB6 / RFU, CACNA2D3 / Fold change vs veh, CACNA2D3 / RFU, DTX4 / Fold change vs veh, DTX4 / RFU, TFCP2 / Fold change vs veh, TFCP2 / RFU, GMCL1 /// GMCL1P1 / Fold change vs veh, GMCL1 /// GMCL1P1 / RFU, AEBP2 / Fold change vs veh, AEBP2 / RFU, SNHG1 /// SNORD22 /// SNORD25 /// SNORD26 /// SNORD27 /// SNORD28 /// SNORD29 /// SNORD31 / Fold change vs veh, SNHG1 /// SNORD22 /// SNORD25 /// SNORD26 /// SNORD27 /// SNORD28 /// SNORD29 /// SNORD31 / Fold change (Aza/veh), C12orf56 (ProbeSet 11735607_a_at) / Fold change (ACY-1035/veh), C12orf56 (ProbeSet 11735607_a_at) / Fold change (Aza/veh), FGFR1OP (ProbeSet 11751329_s_at) / Fold change (ACY-1035/veh), FGFR1OP (ProbeSet 11751329_s_at) / Fold change (Aza/veh), VPS36 (ProbeSet 11739960_a_at) / Fold change (ACY-1035/veh), VPS36 (ProbeSet 11739960_a_at) / RFU SYPL1 (11715823_x_at) / Fold change /veh SYPL1 (11715823_x_at) / RFU IGFBP7 (11715501_s_at) / Fold change /veh IGFBP7 (11715501_s_at) / RFU REEP3 (11722064_at) / Fold change /veh REEP3 (11722064_at) / RFU IGLL1 (11728026_x_at) / Fold change /veh IGLL1 (11728026_x_at): dose or concentration left out as unconfirmed
Details: ProbeSet 11753616_s_at; LIST B

In the case of `Nc1ncn([C@@H]2O[C@H](CO)[C@@H](O)[C@H]2O)c(=O)n1` [azacitidine], the “RFU, ARL8B” value is reported as 221.87 RFU.
